For data set [1], the target named is Transient receptor potential cation channel subfamily A member 1 (Homo sapiens, UniProt O75762). Nature of the data set: Antagonist activity at human TRPA1 expressed in HEK293-TREx cells assessed as intracellular level after 48 of 72 hrs by Fluo-4 NW staining-based fluorescence analysis. It is filed as cell-based.
The target in data set [2] is Transient receptor potential cation channel subfamily V member 1 (Homo sapiens, UniProt Q8NER1). Nature of the data set: Inhibition of human TRPV1.
Sequence of Transient receptor potential cation channel subfamily V member 1 (Q8NER1 whole entry): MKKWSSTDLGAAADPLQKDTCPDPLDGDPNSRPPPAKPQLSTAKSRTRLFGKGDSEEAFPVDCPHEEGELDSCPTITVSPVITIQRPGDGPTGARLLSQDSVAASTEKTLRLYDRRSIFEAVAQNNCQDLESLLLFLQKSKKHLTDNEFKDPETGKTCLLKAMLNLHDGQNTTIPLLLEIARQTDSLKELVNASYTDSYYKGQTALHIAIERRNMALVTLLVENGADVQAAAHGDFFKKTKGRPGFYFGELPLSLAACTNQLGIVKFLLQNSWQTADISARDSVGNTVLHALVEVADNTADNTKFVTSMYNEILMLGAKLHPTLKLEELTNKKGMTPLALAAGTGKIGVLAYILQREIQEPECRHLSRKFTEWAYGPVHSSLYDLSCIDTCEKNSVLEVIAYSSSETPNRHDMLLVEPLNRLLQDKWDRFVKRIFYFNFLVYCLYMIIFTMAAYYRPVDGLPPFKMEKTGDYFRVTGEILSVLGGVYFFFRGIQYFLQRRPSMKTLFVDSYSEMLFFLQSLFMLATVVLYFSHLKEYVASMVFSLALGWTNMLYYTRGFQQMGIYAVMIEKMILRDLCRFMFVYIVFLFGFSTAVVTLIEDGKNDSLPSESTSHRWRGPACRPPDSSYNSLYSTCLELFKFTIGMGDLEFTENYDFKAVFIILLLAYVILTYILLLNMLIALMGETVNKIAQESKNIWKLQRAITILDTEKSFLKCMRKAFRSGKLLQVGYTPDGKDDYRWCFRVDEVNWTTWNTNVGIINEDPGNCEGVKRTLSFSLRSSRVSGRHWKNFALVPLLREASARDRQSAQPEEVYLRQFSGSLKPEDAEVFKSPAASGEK
Data set [3] in a line: Chemical stability in buffer solution assessed as compound remaining at pH 7 at 70 degC after 24 hrs by HPLC/UV detection. It is filed as physicochemical. Particulars: read-out: Stability.
Data set [4] can be described thus: Apparent permeability across apical to basolateral side in human Caco2 cells at 10 uM at pH 7.4 by Transwell assay. Particulars: Caco-2, pH 7.4. The class given is ADME, cell-based. (In general: Passage across Caco-2 layers is used to estimate intestinal permeability.)
The target in data set [5] is Cytochrome P450 2C19 (Homo sapiens, UniProt P33261). Nature of the data set: Inhibition of CYP2C19 in human liver microsomes by LC-MS/MS/competitive screening assay. The class given is ADME. For orientation: Liver microsomes are a subcellular fraction often used to study metabolism.
Sequence of Cytochrome P450 2C19 (P33261 whole entry): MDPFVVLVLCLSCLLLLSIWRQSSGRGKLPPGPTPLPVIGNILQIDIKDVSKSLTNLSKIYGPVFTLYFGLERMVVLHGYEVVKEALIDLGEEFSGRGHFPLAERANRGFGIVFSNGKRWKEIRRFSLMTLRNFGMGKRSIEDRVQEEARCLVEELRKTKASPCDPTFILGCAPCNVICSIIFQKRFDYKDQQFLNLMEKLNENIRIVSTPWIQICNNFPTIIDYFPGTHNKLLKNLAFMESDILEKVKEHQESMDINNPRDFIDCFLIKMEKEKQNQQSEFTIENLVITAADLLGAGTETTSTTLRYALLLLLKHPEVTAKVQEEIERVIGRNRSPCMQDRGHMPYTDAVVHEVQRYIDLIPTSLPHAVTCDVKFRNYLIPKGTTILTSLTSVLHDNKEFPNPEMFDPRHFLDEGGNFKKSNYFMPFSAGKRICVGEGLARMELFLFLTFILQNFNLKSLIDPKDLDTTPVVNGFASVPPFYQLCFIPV
Data set [6] deals with Cytochrome P450 3A4 (Homo sapiens, UniProt P08684). As to the kind of experiment: Inhibition of CYP3A4 in human liver microsomes by LC-MS/MS/competitive screening assay. It is filed as ADME.
Sequence of Cytochrome P450 3A4 (P08684 whole entry): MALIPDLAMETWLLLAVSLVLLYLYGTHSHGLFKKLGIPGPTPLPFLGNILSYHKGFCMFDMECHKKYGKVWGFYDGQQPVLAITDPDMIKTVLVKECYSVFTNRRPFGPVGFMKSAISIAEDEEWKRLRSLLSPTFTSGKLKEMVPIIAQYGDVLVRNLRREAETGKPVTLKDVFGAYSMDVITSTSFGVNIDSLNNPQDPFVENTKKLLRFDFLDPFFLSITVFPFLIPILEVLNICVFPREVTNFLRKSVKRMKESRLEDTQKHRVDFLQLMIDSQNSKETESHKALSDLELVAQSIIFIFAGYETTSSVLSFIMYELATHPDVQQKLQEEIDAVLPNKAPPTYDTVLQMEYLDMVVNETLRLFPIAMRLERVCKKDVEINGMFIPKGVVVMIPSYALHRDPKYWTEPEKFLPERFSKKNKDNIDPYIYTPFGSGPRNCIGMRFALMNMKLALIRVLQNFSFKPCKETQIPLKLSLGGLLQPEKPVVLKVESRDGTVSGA
Data set [7] is described as follows: Thermodynamic solubility of the compound in buffer at pH 7.4 by HPLC/UV detection. The conditions noted are these: read-out: Therm_solubility. It is filed as physicochemical.
In data set [8] the target is T1, Cytochrome P450 1A2 (Homo sapiens, UniProt P05177).
T1 sequence (P05177 whole entry): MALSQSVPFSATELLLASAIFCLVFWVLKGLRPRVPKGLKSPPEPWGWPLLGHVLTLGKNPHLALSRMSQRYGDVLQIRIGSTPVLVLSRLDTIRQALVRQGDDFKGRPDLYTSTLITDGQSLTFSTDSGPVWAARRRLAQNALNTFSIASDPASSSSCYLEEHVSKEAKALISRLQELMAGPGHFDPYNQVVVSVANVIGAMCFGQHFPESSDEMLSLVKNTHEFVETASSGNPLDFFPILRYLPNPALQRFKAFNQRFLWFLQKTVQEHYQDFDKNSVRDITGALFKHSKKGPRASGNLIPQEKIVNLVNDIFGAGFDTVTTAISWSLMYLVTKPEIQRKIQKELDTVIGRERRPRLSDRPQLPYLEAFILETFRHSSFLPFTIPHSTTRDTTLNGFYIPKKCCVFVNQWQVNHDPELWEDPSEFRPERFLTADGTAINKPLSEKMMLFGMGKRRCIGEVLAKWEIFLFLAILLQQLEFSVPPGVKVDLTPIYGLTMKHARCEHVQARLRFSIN
As to the kind of experiment: Time dependent inhibition of CYP1A2 in human liver microsomes assessed as shift at 10 uM. It is filed as ADME. Particulars: pooled result: one value given for 4 cell lines, strains, targets or settings.

The target in data set [9] is Cytochrome P450 2D6 (Homo sapiens, UniProt P10635). Nature of the data set: Inhibition of CYP2D6 in human liver microsomes by LC-MS/MS/competitive screening assay. It is filed as ADME.
Sequence of Cytochrome P450 2D6 (P10635 whole entry): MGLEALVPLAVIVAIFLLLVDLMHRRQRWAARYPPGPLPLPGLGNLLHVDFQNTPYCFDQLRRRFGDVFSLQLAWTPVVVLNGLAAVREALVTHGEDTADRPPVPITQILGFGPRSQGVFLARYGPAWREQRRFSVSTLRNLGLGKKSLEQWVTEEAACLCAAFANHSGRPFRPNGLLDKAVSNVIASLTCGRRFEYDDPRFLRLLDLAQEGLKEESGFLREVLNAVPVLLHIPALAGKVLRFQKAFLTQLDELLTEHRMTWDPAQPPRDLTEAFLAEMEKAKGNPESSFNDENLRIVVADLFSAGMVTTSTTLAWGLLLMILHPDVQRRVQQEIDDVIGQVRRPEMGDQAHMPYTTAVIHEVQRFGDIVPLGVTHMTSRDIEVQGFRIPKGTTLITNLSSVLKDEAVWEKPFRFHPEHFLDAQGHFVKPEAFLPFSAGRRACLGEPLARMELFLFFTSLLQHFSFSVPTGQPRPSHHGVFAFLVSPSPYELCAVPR
Data set [10] concerns the target T1, Cytochrome P450 1A2. As to the kind of experiment: Inhibition of CYP1A2 in human liver microsomes by LC-MS/MS/competitive screening assay. The class given is ADME.
Data set [11] can be described thus: Chemical stability in buffer solution assessed as compound remaining at pH 1 at 70 degC after 24 hrs by HPLC/UV detection. The class given is physicochemical. The conditions noted are these: read-out: Stability.
The target in data set [12] is Cytochrome P450 2C9 (Homo sapiens, UniProt P11712). Nature of the data set: Inhibition of CYP2C9 in human liver microsomes by LC-MS/MS/competitive screening assay. The class given is ADME.
Sequence of Cytochrome P450 2C9 (P11712 whole entry): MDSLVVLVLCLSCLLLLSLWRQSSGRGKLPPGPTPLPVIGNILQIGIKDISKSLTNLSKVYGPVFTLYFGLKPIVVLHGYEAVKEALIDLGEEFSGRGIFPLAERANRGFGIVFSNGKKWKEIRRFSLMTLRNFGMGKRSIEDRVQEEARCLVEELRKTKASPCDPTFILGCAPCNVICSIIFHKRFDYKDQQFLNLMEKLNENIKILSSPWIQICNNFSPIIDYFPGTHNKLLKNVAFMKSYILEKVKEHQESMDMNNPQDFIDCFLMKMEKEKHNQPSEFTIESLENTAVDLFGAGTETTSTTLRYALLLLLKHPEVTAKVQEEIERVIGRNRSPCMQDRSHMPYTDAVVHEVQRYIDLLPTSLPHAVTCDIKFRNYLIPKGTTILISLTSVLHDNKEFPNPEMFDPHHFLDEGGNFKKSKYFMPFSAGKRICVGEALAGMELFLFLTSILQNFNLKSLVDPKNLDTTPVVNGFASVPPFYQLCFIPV
Data set [13] in a line: Intrinsic clearance in human liver microsomes at 1 uM in presence of NADPH. The class given is ADME. Particulars: read-out: CLH.
In data set [14] the target is Transient receptor potential cation channel subfamily A member 1 (Rattus norvegicus, UniProt Q6RI86). As to the kind of experiment: Antagonist activity at rat TRPA1 expressed in HEK293-TREx cells assessed as intracellular level after 48 of 72 hrs by Fluo-4 NW staining-based fluorescence analysis. It is filed as cell-based.
Sequence of Transient receptor potential cation channel subfamily A member 1 (Rattus norvegicus, UniProt Q6RI86) (Q6RI86 whole entry): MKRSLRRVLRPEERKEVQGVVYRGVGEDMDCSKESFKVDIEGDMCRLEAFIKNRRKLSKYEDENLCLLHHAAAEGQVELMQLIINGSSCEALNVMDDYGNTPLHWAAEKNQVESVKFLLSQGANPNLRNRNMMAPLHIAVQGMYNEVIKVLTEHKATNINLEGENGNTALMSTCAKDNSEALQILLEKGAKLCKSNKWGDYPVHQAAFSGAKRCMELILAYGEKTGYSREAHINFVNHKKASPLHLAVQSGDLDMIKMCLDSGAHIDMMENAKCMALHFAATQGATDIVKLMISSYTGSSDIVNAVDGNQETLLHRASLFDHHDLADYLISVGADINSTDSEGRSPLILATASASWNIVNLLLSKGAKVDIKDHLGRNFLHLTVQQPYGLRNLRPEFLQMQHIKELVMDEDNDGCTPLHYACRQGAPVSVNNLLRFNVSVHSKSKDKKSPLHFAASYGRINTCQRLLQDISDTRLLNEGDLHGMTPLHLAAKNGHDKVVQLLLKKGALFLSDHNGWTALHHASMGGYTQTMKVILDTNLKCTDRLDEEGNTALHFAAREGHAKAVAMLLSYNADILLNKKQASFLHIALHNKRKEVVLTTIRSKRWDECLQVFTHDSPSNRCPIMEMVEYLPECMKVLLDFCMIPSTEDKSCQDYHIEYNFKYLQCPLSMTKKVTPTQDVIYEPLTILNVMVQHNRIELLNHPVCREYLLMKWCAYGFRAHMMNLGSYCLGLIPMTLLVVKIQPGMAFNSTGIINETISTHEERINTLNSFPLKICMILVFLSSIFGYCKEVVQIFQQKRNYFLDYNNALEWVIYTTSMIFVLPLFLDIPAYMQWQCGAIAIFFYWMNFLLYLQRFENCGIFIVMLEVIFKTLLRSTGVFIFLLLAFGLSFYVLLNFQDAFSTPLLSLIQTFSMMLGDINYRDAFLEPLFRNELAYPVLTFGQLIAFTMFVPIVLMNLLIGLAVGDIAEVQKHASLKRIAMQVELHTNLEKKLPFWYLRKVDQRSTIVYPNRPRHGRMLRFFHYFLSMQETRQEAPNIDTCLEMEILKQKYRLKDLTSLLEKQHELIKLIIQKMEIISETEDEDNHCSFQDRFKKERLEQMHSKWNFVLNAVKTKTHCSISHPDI
A short description of data set [15]: Chemical stability in buffer solution assessed as compound remaining at pH 14 at 70 degC after 24 hrs by HPLC/UV detection. It is filed as physicochemical. The conditions noted are these: read-out: Stability.

Values after ≈ are worked out from the molar mass of the structure shown.

Sequence of Transient receptor potential cation channel subfamily A member 1 (Homo sapiens, UniProt O75762) (O75762 whole entry): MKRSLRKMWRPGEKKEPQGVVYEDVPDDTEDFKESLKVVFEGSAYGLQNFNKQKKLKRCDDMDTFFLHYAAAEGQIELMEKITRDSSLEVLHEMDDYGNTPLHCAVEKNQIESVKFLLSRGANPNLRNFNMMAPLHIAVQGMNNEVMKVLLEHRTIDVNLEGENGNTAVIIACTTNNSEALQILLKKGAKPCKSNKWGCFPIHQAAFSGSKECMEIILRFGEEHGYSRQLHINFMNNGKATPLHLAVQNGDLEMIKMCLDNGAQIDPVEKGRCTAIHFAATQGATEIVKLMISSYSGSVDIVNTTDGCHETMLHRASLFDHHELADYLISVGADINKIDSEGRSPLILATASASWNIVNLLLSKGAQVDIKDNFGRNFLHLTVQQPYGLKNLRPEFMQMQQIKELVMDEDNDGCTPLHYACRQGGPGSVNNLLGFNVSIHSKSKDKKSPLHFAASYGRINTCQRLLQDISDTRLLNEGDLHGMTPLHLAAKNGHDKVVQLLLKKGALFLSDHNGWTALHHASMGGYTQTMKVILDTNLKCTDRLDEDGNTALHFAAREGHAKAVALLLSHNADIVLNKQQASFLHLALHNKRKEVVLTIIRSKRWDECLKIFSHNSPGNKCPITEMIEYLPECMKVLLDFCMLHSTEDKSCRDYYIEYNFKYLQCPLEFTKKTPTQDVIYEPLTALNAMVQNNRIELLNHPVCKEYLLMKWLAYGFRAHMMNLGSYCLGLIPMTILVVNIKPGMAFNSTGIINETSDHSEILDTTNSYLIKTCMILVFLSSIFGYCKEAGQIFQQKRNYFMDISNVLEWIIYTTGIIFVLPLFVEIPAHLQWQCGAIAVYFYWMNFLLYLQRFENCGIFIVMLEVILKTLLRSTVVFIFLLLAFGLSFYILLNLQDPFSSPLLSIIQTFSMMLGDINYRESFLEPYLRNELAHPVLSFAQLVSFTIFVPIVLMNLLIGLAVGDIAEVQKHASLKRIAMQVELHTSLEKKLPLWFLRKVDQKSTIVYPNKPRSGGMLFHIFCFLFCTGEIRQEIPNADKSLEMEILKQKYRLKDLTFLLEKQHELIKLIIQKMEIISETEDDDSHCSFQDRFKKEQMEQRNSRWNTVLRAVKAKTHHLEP

The IC50 is the concentration at which inhibition is half-maximal. `Fc1ccc(Oc2nccc3ccccc23)c(F)c1`: the IC50 in data set [1] amounted to 3100 nM.
As to `Cc1ccc(Oc2ncnc3[nH]ccc23)c(C)c1`, in data set [1], the IC50 is more than 32000 nM.
On the same count and under the same terms, under `COc1cc2ncnc(Oc3ccc(F)cc3F)c2cc1OC` stands 1200 nM.
On the same count and under the same terms, under `N#Cc1ccc(Oc2ncnc3[nH]ccc23)cc1` stands more than 32000 nM; under `Fc1cccc(Oc2ncnc3[nH]ccc23)c1`, more than 32000 nM.
Usually Papp A→B stands for how fast a substance crosses the layer from the apical side. Take `Fc1ccc(Oc2ncnc3[nH]ccc23)cc1`: the IC50 in data set [2] is more than 10000 nM; in data set [5], more than 20000 nM; in [6], more than 20000 nM; in data set [9], more than 20000 nM; in data set [10], more than 20000 nM; in data set [1], 410 nM. For the same molecule, the values for the IC50 in data set [12] and in data set [14] were more than 20000 nM and 3000 nM, respectively. Moreover, the remaining at 24 h in data set [3] is 100%; in [11] it was 10%; in data set [15] it was 100%. Also, the Papp A→B at 10 µM in data set [4] was 18 ×10⁻⁶ cm/s. Also, in [7], the solubility thermodynamic worked out at 33 µM (≈ 7.56 µg/mL). In addition, the TDI in data set [8] is 44%. Besides, in data set [13], the microsomal CLint at 1 µM is 24 µL/min/mg.
Take `COc1ccc2c(Oc3ccc(F)cc3F)nccc2c1`: the IC50 in [1] came out at 1300 nM.
Same read-out and setting: with `Fc1ccc(Oc2nccc3ccoc23)c(F)c1` the figure was 1100 nM.
The same measure, in the same setting: under `Fc1ccc(Nc2ncnc3[nH]ccc23)cc1` stands more than 32000 nM; under `Fc1ccc(Oc2ccnc3[nH]ccc23)c(F)c1`, more than 32000 nM.
On the same count and under the same terms, with `Fc1ccc(Oc2ncnc3[nH]ccc23)c(F)c1` the figure was 710 nM.
Take `Fc1ccccc1Oc1ncnc2[nH]ccc12`: in data set [1], the 50% inhibitory concentration (IC50) was more than 32000 nM.
The same measure, in the same setting: with `Fc1ccc(Cc2ncnc3[nH]ccc23)cc1` the figure was more than 32000 nM.
On to `Fc1ccc(Oc2nccc3[nH]ccc23)cc1`, for which the apparent permeability from apical to basolateral (Papp A→B) at 10 µM in data set [4] is 12 ×10⁻⁶ cm/s. The IC50 in [5] is more than 20000 nM; in [6] it was more than 20000 nM; in data set [9], more than 20000 nM; in data set [10], more than 20000 nM; in data set [1] it was 310 nM; in data set [12], more than 20000 nM. In data set [14], the IC50 amounted to 1200 nM. Besides, in [7], the solubility thermodynamic is 24 µM (≈ 5.48 µg/mL). For the same molecule, the TDI in data set [8] was determined as 31%. Besides, the microsomal CLint at 1 µM in data set [13] is 74 µL/min/mg.
Turning to `Fc1ccc(Oc2ccncn2)c(F)c1`, the IC50 in data set [1] is more than 32000 nM.
The same measure, in the same setting: with `COc1cc2ccnc(Oc3ccc(F)cc3F)c2cc1OC` the figure was 630 nM.
Turning to `COc1cc2ccnc(Oc3ccc(F)cc3)c2cc1OC`, in data set [4], the apparent permeability from apical to basolateral (Papp A→B) at 10 µM came out at 6 ×10⁻⁶ cm/s. The IC50 stood at 1900 nM in data set [5]; 1900 nM in [6]; 1900 nM in data set [9]; 1900 nM in [10]; 330 nM in [1]; 1900 nM in data set [12]. In data set [14], the IC50 came out at 1800 nM. Further, in data set [7], the solubility thermodynamic came out at 8 µM (≈ 2.39 µg/mL). Besides, the microsomal CLint at 1 µM in data set [13] worked out at 110 µL/min/mg.
For the molecule `Fc1ccc(Oc2ncnc3ccccc23)c(F)c1`, the IC50 in [1] was more than 32000 nM.
Same read-out and setting: with `Clc1ccc(Oc2ncnc3[nH]ccc23)cc1` the figure was more than 32000 nM; with `c1ccc(Oc2ncnc3[nH]ccc23)cc1`, 3200 nM.
On the same count and under the same terms, under `Cn1ccc2c(Oc3ccc(F)cc3F)ncnc21` stands more than 32000 nM.
Still for that read-out and setting: under `COc1ccc2ncnc(Oc3ccc(F)cc3F)c2c1` stands more than 32000 nM.
With `COc1ccc(Oc2ncnc3[nH]ccc23)cc1`, the half-inhibitory concentration (IC50) in data set [1] is more than 32000 nM.
On the same count and under the same terms, under `Cc1cc2c(Oc3ccc(F)cc3F)ncnc2[nH]1` stands 1200 nM; under `Fc1ccc(Oc2ncnc3[nH]ccc23)cc1F`, 3000 nM; under `Fc1ccc(Oc2ncnc3[nH]cc(Cl)c23)c(F)c1`, 630 nM.
Regarding `Fc1ccc(Oc2nccc3occc23)c(F)c1`, the IC50 in data set [1] stood at 2200 nM.
As to `Fc1ccc(Oc2cccc3[nH]ccc23)c(F)c1`, the IC50 in data set [1] is 1100 nM.
Regarding `Fc1ccc(Oc2nccc3[nH]ccc23)c(F)c1`, the IC50 in data set [2] was more than 10000 nM; in data set [5] it was more than 20000 nM; in data set [6], more than 20000 nM; in data set [9] it was more than 20000 nM; in data set [10] it was more than 20000 nM; in [1] it was 320 nM. In addition, the IC50 in data set [12] is more than 20000 nM; in [14] it was 1700 nM. For the same molecule, the remaining at 24 h in [3], in data set [11] and in data set [15] was 100% throughout. For the same molecule, the Papp A→B at 10 µM in data set [4] stood at 33 ×10⁻⁶ cm/s. The solubility thermodynamic in [7] turned out to be 77 µM (≈ 19 µg/mL). In data set [8], the TDI amounted to 42%. Besides, the microsomal CLint at 1 µM in [13] came out at 45 µL/min/mg.
For `Cc1ccc(Oc2ncnc3[nH]ccc23)cc1`, the 50% inhibitory concentration (IC50) in data set [1] is more than 32000 nM.
The same measure, in the same setting: under `Fc1cccc(Oc2ncnc3[nH]ccc23)c1F` stands 2700 nM; under `Fc1ccc(Oc2ncnc3occc23)c(F)c1`, more than 32000 nM; under `Fc1ccc(Oc2ncnc3ccoc23)c(F)c1`, more than 32000 nM.
Still for that read-out and setting: under `Fc1ccc(Oc2ncnc3[nH]cc(I)c23)c(F)c1` stands 2500 nM; under `O=[N+]([O-])c1ccc(Oc2ncnc3[nH]ccc23)cc1`, more than 32000 nM; under `COc1ccc2c(Oc3ccc(F)cc3F)ncnc2c1`, 3000 nM.
Same read-out and setting: with `Fc1cc(F)c(Oc2ncnc3[nH]ccc23)c(F)c1` the figure was more than 32000 nM; with `Cc1ccccc1Oc1ncnc2[nH]ccc12`, more than 32000 nM; with `Cc1c[nH]c2ncnc(Oc3ccc(F)cc3F)c12`, 650 nM.
Take `Fc1ccc(Oc2ncnc3cc[nH]c23)c(F)c1`: the IC50 in [1] was more than 32000 nM.
`CCc1c[nH]c2ncnc(Oc3ccc(F)cc3F)c12`: in data set [1], the IC50 turned out to be 1600 nM.
On the same count and under the same terms, under `Cc1[nH]c2ncnc(Oc3ccc(F)cc3F)c2c1C` stands 2000 nM.

Source of the values: ChEMBL document CHEMBL3297644, “Discovery of a 4-aryloxy-1H-pyrrolo[3,2-c]pyridine and a 1-aryloxyisoquinoline series of TRPA1 antagonists” (Bioorg Med Chem Lett, 2014).
